Calls of active or inactive are those of the source. No cut-off for these calls is given here.
Experiments:
[1] = target: T1, von Hippel-Lindau disease tumor suppressor/Serine/threonine-protein kinase PAK 1 (Homo sapiens, UniProt Q13153+P40337); assay: PROTAC activity at VHL/PAK1 in human MDA-MB-231 cells assessed as induction of protein degradation at 2.5 uM incubated for 48 hrs by Western blot analysis relative to control; assay type: cell-based
MDA-MB-231 [2] = assay: Antiproliferative activity against human MDA-MB-231 cells incubated for 48 hrs by MTT assay; assay type: functional, cell-based; conditions: MDA-MB-231, 48 h
[3] = target: T2, Serine/threonine-protein kinase PAK 1 (Homo sapiens, UniProt Q13153); assay: Binding affinity to CM5 chip-immobilized recombinant PAK1 (unknown origin) assessed as dissociation constant by SPR analysis
[4] = target: T2, Serine/threonine-protein kinase PAK 1; assay: Binding affinity to CM5 chip-immobilized recombinant PAK1 (unknown origin) by SPR analysis
[5] = target: T2, Serine/threonine-protein kinase PAK 1; assay: Induction of thermal stability of PAK1 in human MDA-MB-231 cells at 10 uM under 37 to 67 degreeC heat exposure by CETSA; assay type: cell-based
[6] = target: T1, von Hippel-Lindau disease tumor suppressor/Serine/threonine-protein kinase PAK 1; assay: PROTAC activity at VHL/PAK1 in human MDA-MB-231 cells assessed as induction of protein degradation incubated for 48 hrs in presence of VHL by Western blot analysis; assay type: cell-based
MDA-MB-231 [7] = assay: Inhibition of formation of human MDA-MB-231 cells tumor sphere by crystal violet staining based analysis; assay type: functional, cell-based; conditions: time <= 48.0 hrs, TDE = time-dependent effect
MDA-MB-231 [8] = assay: Antiproliferative activity against human MDA-MB-231 cells assessed as decrease in green fluorescence by EdU staining based analysis; assay type: functional, cell-based
[9] = target: T2, Serine/threonine-protein kinase PAK 1; assay: Inhibition of PAK1 in human MDA-MB-231 cells at 5 uM incubated for 24 hrs by immunofluorescence based analysis; assay type: cell-based
[10] = target: T2, Serine/threonine-protein kinase PAK 1; assay: Inhibition of PAK1 in human MDA-MB-231 cells assessed as decrease in ERK1/2 phosphorylation at Thr202/Tyr204 incubated upto 48 hrs by Western blot analysis; assay type: cell-based
[11] = target: Serine/threonine-protein kinase PAK 3 (Homo sapiens) (UniProt O75914); assay: Inhibition of PAK3 in human MDA-MB-231 cells incubated upto 48 hrs by Western blot analysis; assay type: cell-based
MDA-MB-231 [12] = assay: Induction of apoptosis in human MDA-MB-231 cells assessed as viable cells at 2.5 to 10 uM incubated for 12 hrs by Annexin V-FITC/PI staining based flow cytometry (reference value: 94.8 %); assay type: functional; conditions: dose 2.5-10 µM
MDA-MB-231 [13] = assay: Induction of apoptosis in human MDA-MB-231 cells assessed as late apoptotic cells at 2.5 to 10 uM incubated for 12 hrs by Annexin V-FITC/PI staining based flow cytometry (reference value: 2.46 %); assay type: functional; conditions: dose 2.5-10 µM
MDA-MB-231 [14] = assay: Induction of apoptosis in human MDA-MB-231 cells assessed as necrotic cells at 2.5 to 10 uM incubated for 12 hrs by Annexin V-FITC/PI staining based flow cytometry (reference value: 1.08 %); assay type: functional; conditions: dose 2.5-10 µM
MDA-MB-231 [15] = assay: Induction of apoptosis in human MDA-MB-231 cells assessed as viable cells at 2.5 to 10 uM incubated for 24 hrs by Annexin V-FITC/PI staining based flow cytometry (reference value: 94.8 %); assay type: functional; conditions: dose 2.5-10 µM
MDA-MB-231 [16] = assay: Induction of apoptosis in human MDA-MB-231 cells assessed as late apoptotic cells at 2.5 to 10 uM incubated for 24 hrs by Annexin V-FITC/PI staining based flow cytometry (reference value: 2.46 %); assay type: functional; conditions: dose 2.5-10 µM
MDA-MB-231 [17] = assay: Induction of apoptosis in human MDA-MB-231 cells assessed as necrotic cells at 2.5 to 10 uM incubated for 24 hrs by Annexin V-FITC/PI staining based flow cytometry (reference value: 1.08 %); assay type: functional; conditions: dose 2.5-10 µM
MDA-MB-231 [18] = assay: Induction of apoptosis in human MDA-MB-231 cells assessed as viable cells at 2.5 to 10 uM incubated for 48 hrs by Annexin V-FITC/PI staining based flow cytometry (reference value: 94.8 %); assay type: functional; conditions: dose 2.5-10 µM
MDA-MB-231 [19] = assay: Induction of apoptosis in human MDA-MB-231 cells assessed as early apoptotic cells at 2.5 to 10 uM incubated for 48 hrs by Annexin V-FITC/PI staining based flow cytometry (reference value: 1.70 %); assay type: functional; conditions: dose 2.5-10 µM
MDA-MB-231 [20] = assay: Induction of apoptosis in human MDA-MB-231 cells assessed as increase in cleaved caspase-3 level at 2.5 to 10 uM incubated upto 48 hrs by Western blot analysis; assay type: functional, cell-based; conditions: dose 2.5-10 µM
MDA-MB-231 [21] = assay: Induction of apoptosis in human MDA-MB-231 cells assessed as increase in Bax level at 2.5 to 10 uM incubated upto 48 hrs by Western blot analysis; assay type: functional, cell-based; conditions: dose 2.5-10 µM
MDA-MB-231 [22] = assay: Induction of apoptosis in human MDA-MB-231 cells assessed as decrease in Bcl-2 level at 2.5 to 10 uM incubated upto 48 hrs by Western blot analysis; assay type: functional, cell-based; conditions: dose 2.5-10 µM
MDA-MB-231 [23] = assay: Inhibition of cell migration in human MDA-MB-231 cells upto 10 uM incubated for 24 hrs by transwell assay; assay type: functional, cell-based
MDA-MB-231 [24] = assay: Inhibition of cell migration in human MDA-MB-231 cells assessed as increase in E-Cadherin level by Western blot analysis; assay type: functional, cell-based; conditions: time <= 48.0 hrs, TDE = time-dependent effect
MDA-MB-231 [25] = assay: Inhibition of cell proliferation of human MDA-MB-231 cells assessed as decrease in Ki-67 expression at 2.5 uM incubated for 24 hrs by immunofluorescence based analysis; assay type: functional
MDA-MB-231 [26] = assay: Inhibition of cell migration in human MDA-MB-231 cells at 2.5 uM incubated for 24 hrs by transwell assay; assay type: functional, cell-based
MDA-MB-231 [27] = assay: Induction of apoptosis in human MDA-MB-231 cells assessed as necrotic cells at 2.5 uM incubated for 12 to 48 hrs by Annexin V-FITC/PI staining based flow cytometry (reference value: 0.43 %); assay type: functional; conditions: time 12-48 hrs
[28] = Toxicity in BALB/c mouse xenografted with human MDA-MB-231 cells assessed as animal growth at 20 mg/kg, ip qd for 12 days; assay type: organism-based; conditions: in vivo, 288 h, time 12 day
MDA-MB-231 [29] = assay: Inhibition of cell proliferation of human MDA-MB-231 cells xenografted in BALB/c mouse assessed as reduction in Ki-67 level at 20 mg/kg, ip qd for 12 days by IHC analysis; assay type: functional, organism-based; conditions: time 12.0 day
[30] = target: T2, Serine/threonine-protein kinase PAK 1; assay: In vivo inhibition of PAK1 in human MDA-MB-231 cells xenografted in BALB/c mouse at 20 mg/kg, ip qd for 12 days by IHC analysis; assay type: functional, organism-based; conditions: time 12.0 day
[31] = target: T2, Serine/threonine-protein kinase PAK 1; assay: In vivo inhibition of PAK1 in human MDA-MB-231 cells xenografted in BALB/c mouse at 20 mg/kg, ip qd for 12 days by Western blot analysis; assay type: functional, organism-based; conditions: time 12.0 day
[32] = target: T2, Serine/threonine-protein kinase PAK 1; assay: In vivo inhibition of PAK1 phosphorylation at S144 in human MDA-MB-231 cells xenografted in BALB/c mouse at 20 mg/kg, ip qd for 12 days by Western blot analysis; assay type: functional, organism-based; conditions: time 12.0 day
MDA-MB-231 [33] = assay: Induction of apoptosis in human MDA-MB-231 cells xenografted in BALB/c mouse assessed as increase in PARP level at 20 mg/kg, ip qd for 12 days by Western blot analysis; assay type: functional, organism-based; conditions: time 12.0 day
MDA-MB-231 [34] = assay: Induction of apoptosis in human MDA-MB-231 cells xenografted in BALB/c mouse assessed as increase in cleaved caspase-3 level at 20 mg/kg, ip qd for 12 days by Western blot analysis; assay type: functional, organism-based; conditions: time 12.0 day

T2 sequence (Q13153 whole entry): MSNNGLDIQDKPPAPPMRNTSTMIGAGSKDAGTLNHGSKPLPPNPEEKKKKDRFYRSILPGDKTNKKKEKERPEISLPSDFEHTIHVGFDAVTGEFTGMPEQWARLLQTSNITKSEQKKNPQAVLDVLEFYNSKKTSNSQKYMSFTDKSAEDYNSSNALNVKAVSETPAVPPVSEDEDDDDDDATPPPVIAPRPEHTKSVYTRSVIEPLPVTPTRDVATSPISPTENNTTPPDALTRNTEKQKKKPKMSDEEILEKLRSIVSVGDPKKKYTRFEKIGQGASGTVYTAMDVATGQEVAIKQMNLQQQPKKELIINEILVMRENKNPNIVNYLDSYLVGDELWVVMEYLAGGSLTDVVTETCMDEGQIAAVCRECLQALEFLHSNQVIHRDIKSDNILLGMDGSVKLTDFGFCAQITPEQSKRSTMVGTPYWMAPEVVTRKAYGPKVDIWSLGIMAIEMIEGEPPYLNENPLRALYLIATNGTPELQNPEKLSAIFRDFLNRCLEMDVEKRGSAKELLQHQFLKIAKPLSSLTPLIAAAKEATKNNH
T1 sequence (Q13153 2-545 limits assumed): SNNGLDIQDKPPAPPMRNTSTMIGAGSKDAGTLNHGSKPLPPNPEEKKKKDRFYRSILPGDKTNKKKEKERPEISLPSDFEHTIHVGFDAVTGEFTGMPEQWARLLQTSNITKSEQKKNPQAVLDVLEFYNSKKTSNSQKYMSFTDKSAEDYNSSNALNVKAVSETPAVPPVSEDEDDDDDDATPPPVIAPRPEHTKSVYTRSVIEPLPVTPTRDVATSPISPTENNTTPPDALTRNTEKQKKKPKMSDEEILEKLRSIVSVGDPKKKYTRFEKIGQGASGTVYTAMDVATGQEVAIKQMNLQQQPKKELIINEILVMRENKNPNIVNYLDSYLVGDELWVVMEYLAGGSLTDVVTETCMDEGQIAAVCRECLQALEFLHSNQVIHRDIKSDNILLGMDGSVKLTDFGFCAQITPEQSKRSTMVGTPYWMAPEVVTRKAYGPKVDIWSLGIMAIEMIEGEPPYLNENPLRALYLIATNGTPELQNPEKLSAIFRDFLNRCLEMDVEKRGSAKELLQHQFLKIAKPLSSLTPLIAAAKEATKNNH
T1 sequence (P40337 whole entry partner): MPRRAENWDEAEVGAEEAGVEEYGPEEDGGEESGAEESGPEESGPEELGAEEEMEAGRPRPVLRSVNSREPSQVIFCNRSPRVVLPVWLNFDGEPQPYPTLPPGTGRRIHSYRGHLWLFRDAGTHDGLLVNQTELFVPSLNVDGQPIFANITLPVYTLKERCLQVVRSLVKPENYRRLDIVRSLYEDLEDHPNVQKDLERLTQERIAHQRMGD
Sequence of Serine/threonine-protein kinase PAK 3 (Homo sapiens) (O75914 whole entry, looked up): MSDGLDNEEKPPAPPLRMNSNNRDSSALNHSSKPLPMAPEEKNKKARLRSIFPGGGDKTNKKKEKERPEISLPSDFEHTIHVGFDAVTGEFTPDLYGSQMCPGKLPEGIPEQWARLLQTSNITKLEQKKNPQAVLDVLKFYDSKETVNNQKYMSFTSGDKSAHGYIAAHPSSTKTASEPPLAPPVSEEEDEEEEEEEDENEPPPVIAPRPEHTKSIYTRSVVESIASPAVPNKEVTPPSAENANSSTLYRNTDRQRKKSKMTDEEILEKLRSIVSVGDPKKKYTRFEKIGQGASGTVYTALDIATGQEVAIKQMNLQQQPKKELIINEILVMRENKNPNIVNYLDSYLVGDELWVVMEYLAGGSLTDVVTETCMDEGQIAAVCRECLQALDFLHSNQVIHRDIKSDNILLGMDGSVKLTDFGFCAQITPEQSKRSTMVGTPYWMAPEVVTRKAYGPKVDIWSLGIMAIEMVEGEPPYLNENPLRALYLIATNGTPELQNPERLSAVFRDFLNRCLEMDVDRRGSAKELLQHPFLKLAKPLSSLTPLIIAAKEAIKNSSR

Cc1ncsc1-c1ccc([C@H](C)NC(=O)[C@@H]2C[C@@H](O)CN2C(=O)[C@@H](NC(=O)CCc2cn(CCCCCCCn3c(=O)c(-c4ccc(Cl)cc4Cl)cc4cnc(NC5CC5)nc43)nn2)C(C)(C)C)cc1
Activity [1]: 71% | IC50 (MDA-MB-231 [2]): 1.27 µM | Kd [3]: 16.2 µM | Activity [4]: Dose-Dependent Effect | Activity [5]: Active | Activity [6]: inactive | inhibition (MDA-MB-231 [7]): Tde | Activity (MDA-MB-231 [8]): Active | inhibition [9]: Active | inhibition [10]: Active | inhibition [11]: inactive | Activity (MDA-MB-231 [12]): 86.3% | Activity (MDA-MB-231 [13]): 5.67% | Activity (MDA-MB-231 [14]): 3.7% | Activity (MDA-MB-231 [15]): 76.6% | Activity (MDA-MB-231 [16]): 6.74% | Activity (MDA-MB-231 [17]): 4.92% | Activity (MDA-MB-231 [18]): 55.4% | Activity (MDA-MB-231 [19]): 37.9% | Activity (MDA-MB-231 [20]): Active | Activity (MDA-MB-231 [21]): Active | Activity (MDA-MB-231 [22]): Active | inhibition (MDA-MB-231 [23]): Active | inhibition (MDA-MB-231 [24]): Tde | inhibition (MDA-MB-231 [25]): Active | inhibition (MDA-MB-231 [26]): Active | Activity (MDA-MB-231 [27]): 1.4% | Activity [28]: Non-Toxic | inhibition (MDA-MB-231 [29]): Active | inhibition [30]: Active | inhibition [31]: Active | inhibition [32]: Active | Activity (MDA-MB-231 [33]): Active | Activity (MDA-MB-231 [34]): Active
